Molecular target: T1, human TRPV4 (Homo sapiens, UniProt Q9HBA0)
T1 construct: host or cells: tetracycline-inducible Flp-In T-REx 293 cells
Test: Hypotonicity-induced Ca2+ influx (Fluo-4, FDSS)
Format: cell-based
In short: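 Flp-In T-REx 293 cells with tetracycline-induced human TRPV4, loaded with Fluo-4 for 60 min at 25 °C. Compound added 5 min before hypotonic mannitol/CaCl2 solution. Ca2+ signal recorded for 4.5 min on FDSS.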

[1] = Flp-In T-REx 293 cells expressing human TRPV4, examples listed under heading 'Human IC50<50 nM'
[2] = Flp-In T-REx 293 cells stably expressing human TRPV4, compounds listed by potency bin (<10 nM Tables 96-1/96-2, <3 nM Table 97)

T1 sequence (Q9HBA0 whole entry): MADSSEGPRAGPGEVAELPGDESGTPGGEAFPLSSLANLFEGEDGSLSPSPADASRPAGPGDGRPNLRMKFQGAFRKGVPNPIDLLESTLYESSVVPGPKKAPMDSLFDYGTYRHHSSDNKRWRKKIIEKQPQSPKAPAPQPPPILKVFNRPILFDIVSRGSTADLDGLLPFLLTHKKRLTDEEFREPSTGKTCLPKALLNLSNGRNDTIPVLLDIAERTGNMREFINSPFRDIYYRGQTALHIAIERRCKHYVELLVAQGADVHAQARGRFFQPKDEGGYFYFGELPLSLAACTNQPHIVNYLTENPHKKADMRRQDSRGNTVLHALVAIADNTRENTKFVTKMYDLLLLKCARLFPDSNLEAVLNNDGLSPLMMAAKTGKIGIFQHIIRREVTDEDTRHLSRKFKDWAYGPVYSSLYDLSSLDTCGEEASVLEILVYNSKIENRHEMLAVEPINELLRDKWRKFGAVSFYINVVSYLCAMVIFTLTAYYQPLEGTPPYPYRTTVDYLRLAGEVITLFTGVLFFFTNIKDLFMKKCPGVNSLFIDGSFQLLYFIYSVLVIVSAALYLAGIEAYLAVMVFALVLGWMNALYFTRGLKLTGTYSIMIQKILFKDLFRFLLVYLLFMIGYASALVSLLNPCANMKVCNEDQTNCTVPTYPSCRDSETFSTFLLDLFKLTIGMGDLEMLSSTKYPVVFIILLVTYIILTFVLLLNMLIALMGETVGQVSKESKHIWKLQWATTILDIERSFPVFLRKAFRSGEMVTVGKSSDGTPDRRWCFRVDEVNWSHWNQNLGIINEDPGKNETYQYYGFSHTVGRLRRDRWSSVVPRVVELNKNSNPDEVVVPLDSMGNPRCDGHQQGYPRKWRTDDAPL

Question: Which results are given for `O=C([C@H](O)c1cccc(-c2cccc(C(F)(F)F)c2)c1)N1CCCc2nc(C3(c4cccc(Oc5ccccc5)c4)CC3)[nH]c(=O)c2C1` [52-8]?
Answer: IC50 [1]: < 50 nM; IC50 [2]: < 10 nM

Question: Which IC50 [1] does the source give for `O=C([C@H](O)c1cccc(-c2cccc(C(F)(F)F)c2)c1)N1CCCc2nc(C3(c4cccc(-c5csc6ccccc56)c4)CC3)[nH]c(=O)c2C1` [52-9] here?
Answer: The IC50 was under 50 nM.

Question: And the IC50 [2]?
Answer: Its IC50 is under 10 nM.

Question: Which results are given for `O=C([C@H](O)c1cccc(-c2cccc(OC(F)(F)F)c2)c1)N1CCCc2nc(C3(c4cccc(-c5csc6ccccc56)c4)CC3)[nH]c(=O)c2C1` [52-10]?
Answer: IC50 [1]: < 50 nM; IC50 [2]: < 10 nM

Question: Which results are given for `O=C([C@H](O)c1cccc(-c2cccc(Cl)c2)c1)N1CCCc2nc(C3(c4cccc(-c5csc6ccccc56)c4)CC3)[nH]c(=O)c2C1` [52-11]?
Answer: IC50 [1]: < 50 nM; IC50 [2]: < 10 nM

Question: For `CC(C)(C)c1cccc(-c2cccc([C@@H](O)C(=O)N3CCCc4nc(C5(c6cccc(-c7csc8ccccc78)c6)CC5)[nH]c(=O)c4C3)c2)c1` [52-12], which IC50 [1] is on record?
Answer: Its IC50 is under 50 nM.

Question: What about the IC50 [2] of the same compound?
Answer: Its IC50 is under 10 nM.

Question: With `CC(C)c1cccc(-c2cccc([C@@H](O)C(=O)N3CCCc4nc(C5(c6cccc(-c7csc8ccccc78)c6)CC5)[nH]c(=O)c4C3)c2)c1` [52-13] as the compound, how does the IC50 [1] read?
Answer: Its IC50 is under 50 nM.

Question: And the IC50 [2]?
Answer: The IC50 was under 10 nM.

Question: Which results are given for `O=C([C@H](O)c1cccc(-c2cc(F)cc(Cl)c2)c1)N1CCCc2nc(C3(c4cccc(-c5csc6ccccc56)c4)CC3)[nH]c(=O)c2C1` [52-14]?
Answer: IC50 [1]: < 50 nM; IC50 [2]: < 10 nM

Question: How did the IC50 [1] turn out when `O=C([C@H](O)c1cccc(-c2cccc(C3CC3)c2)c1)N1CCCc2nc(C3(c4cccc(-c5csc6ccccc56)c4)CC3)[nH]c(=O)c2C1` [52-15] was run?
Answer: The IC50 was under 50 nM.

Question: And the IC50 [2]?
Answer: Its IC50 is under 10 nM.

Question: Which IC50 [1] does the source give for `O=C([C@H](O)c1cccc(-c2cccc(C(F)(F)F)c2)c1)N1CCCc2nc(C3(c4cccs4)CC3)[nH]c(=O)c2C1` [53-1] here?
Answer: Its IC50 is under 50 nM.

Question: What about the IC50 [2] of the same compound?
Answer: Its IC50 is under 10 nM.

Question: How did the IC50 [1] turn out when `O=C([C@H](O)c1cccc(-c2cccc(OC(F)(F)F)c2)c1)N1CCCc2nc(C3(c4cccs4)CC3)[nH]c(=O)c2C1` [53-2] was run?
Answer: The IC50 was under 50 nM.

Question: What about the IC50 [2] of the same compound?
Answer: Its IC50 is under 3 nM.

Question: How did the IC50 [1] turn out when `CC(C)c1cccc(-c2cccc([C@@H](O)C(=O)N3CCCc4nc(C5(c6cccs6)CC5)[nH]c(=O)c4C3)c2)c1` [53-3] was run?
Answer: The IC50 was under 50 nM.

Question: What about the IC50 [2] of the same compound?
Answer: Its IC50 is under 10 nM.

Question: Which results are given for `CC(C)(C)c1cccc(-c2cccc([C@@H](O)C(=O)N3CCCc4nc(C5(c6cccs6)CC5)[nH]c(=O)c4C3)c2)c1` [53-4]?
Answer: IC50 [1]: < 50 nM; IC50 [2]: < 10 nM

Question: With `O=C([C@H](O)c1cccc(-c2cccc(F)c2)c1)N1CCCc2nc(C3(c4cccs4)CC3)[nH]c(=O)c2C1` [53-5] as the compound, how does the IC50 [1] read?
Answer: The IC50 was under 50 nM.

Question: What about the IC50 [2] of the same compound?
Answer: Its IC50 is under 10 nM.

Question: `O=C([C@H](O)c1cccc(-c2cccc(C3CC3)c2)c1)N1CCCc2nc(C3(c4cccs4)CC3)[nH]c(=O)c2C1` [53-6] was tested. Which IC50 [1] did it give?
Answer: The IC50 was under 50 nM.

Question: What about the IC50 [2] of the same compound?
Answer: Its IC50 is under 3 nM.

Question: For `CC(C)c1csc(C2(c3nc4c(c(=O)[nH]3)CN(C(=O)[C@H](O)c3cccc(-c5cccc(C(C)(C)C)c5)c3)CCC4)CC2)c1` [54-1], which IC50 [1] is on record?
Answer: The IC50 was under 50 nM.

Question: What about the IC50 [2] of the same compound?
Answer: Its IC50 is under 3 nM.

Question: For `CC(C)c1csc(C2(c3nc4c(c(=O)[nH]3)CN(C(=O)[C@H](O)c3cccc(-c5cccc(OC(F)(F)F)c5)c3)CCC4)CC2)c1` [54-2], which IC50 [1] is on record?
Answer: The IC50 was under 50 nM.

Question: And the IC50 [2]?
Answer: Its IC50 is under 10 nM.

Question: How did the IC50 [1] turn out when `CC(C)c1csc(C2(c3nc4c(c(=O)[nH]3)CN(C(=O)[C@H](O)c3cccc(-c5cccc(Cl)c5)c3)CCC4)CC2)c1` [54-3] was run?
Answer: The IC50 was under 50 nM.

Question: What about the IC50 [2] of the same compound?
Answer: The IC50 was under 10 nM.

Question: Which results are given for `CC(C)c1csc(C2(c3nc4c(c(=O)[nH]3)CN(C(=O)[C@H](O)c3cccc(-c5cccc(C(F)(F)F)c5)c3)CCC4)CC2)c1` [54-4]?
Answer: IC50 [1]: < 50 nM; IC50 [2]: < 10 nM

Question: With `CC(C)c1csc(C2(c3nc4c(c(=O)[nH]3)CN(C(=O)[C@H](O)c3cccc(-c5cccc(F)c5)c3)CCC4)CC2)c1` [54-5] as the compound, how does the IC50 [1] read?
Answer: Its IC50 is under 50 nM.

Question: And the IC50 [2]?
Answer: The IC50 was under 3 nM.

Question: Which results are given for `CC(C)c1csc(C2(c3nc4c(c(=O)[nH]3)CN(C(=O)[C@H](O)c3cccc(-c5ccnc(C(F)(F)F)c5)c3)CCC4)CC2)c1` [54-6]?
Answer: IC50 [1]: < 50 nM; IC50 [2]: < 3 nM

Question: For `CC(C)(C)c1cccc(-c2cccc([C@@H](O)C(=O)N3CCCc4nc(C5(c6cc(C7CCCCC7)cs6)CC5)[nH]c(=O)c4C3)c2)c1` [54-7], which IC50 [1] is on record?
Answer: The IC50 was under 50 nM.

Question: And the IC50 [2]?
Answer: The IC50 was under 10 nM.

Question: How did the IC50 [1] turn out when `O=C([C@H](O)c1cccc(-c2csc3ccccc23)c1)N1CCCc2nc(C3(c4cc(C5CCCCC5)cs4)CC3)[nH]c(=O)c2C1` [54-8] was run?
Answer: The IC50 was under 50 nM.

Question: What about the IC50 [2] of the same compound?
Answer: The IC50 was under 10 nM.

Question: Which results are given for `O=C([C@H](O)c1cccc(-c2cccc(C(F)(F)F)c2)c1)N1CCCc2nc(C3(c4cc(C5CCCCC5)cs4)CC3)[nH]c(=O)c2C1` [54-9]?
Answer: IC50 [1]: < 50 nM; IC50 [2]: < 10 nM

Question: Which results are given for `O=C([C@H](O)c1cccc(-c2cccc(Cl)c2)c1)N1CCCc2nc(C3(c4cc(C5CCCCC5)cs4)CC3)[nH]c(=O)c2C1` [54-10]?
Answer: IC50 [1]: < 50 nM; IC50 [2]: < 10 nM

Question: For `O=C([C@H](O)c1cccc(-c2cccc(OC(F)(F)F)c2)c1)N1CCCc2nc(C3(c4cc(C5CCCCC5)cs4)CC3)[nH]c(=O)c2C1` [54-11], which IC50 [1] is on record?
Answer: Its IC50 is under 50 nM.

Question: What about the IC50 [2] of the same compound?
Answer: Its IC50 is under 10 nM.

— patent US12673946B2, “Pyrimidin-4(3H)-one derivatives as TRPV4 antagonists” (RaQualia Pharma Inc., priority 2020, dated 2026)
